# Measured values: patent publication US7104958B2, “Systems and methods for investigating intracranial pressure” (New Health Sciences, Inc., priority 2001, dated 2006)
# System: cerebral vessels
# Protocol: These are the symptoms upon presentation in the neurological clinic. Transcranial Doppler analysis of all cerebral vessels is performed in addition to analyzing the common carotid artery and the internal carotid artery.
# The physician considers prescription of Plavix together with a calcium channel blocker. Transcranial Doppler analysis was performed at monthly intervals. […] The physician subsequently administers a higher dose. Again, transcranial Doppler analysis is performed on all cerebral vessels.
# The patient is then monitored on a monthly basis after the initial prescription of Plavix in order to determine whether vascular changes are occurring which necessitate alteration in the therapy.
# [1] = same patient, higher dose, transcranial Doppler on all cerebral vessels
structure (smiles),measurement,setting,value
COC(=O)[C@H](c1ccccc1Cl)N1CCc2sccc2C1 [Plavix],changes in the individual cerebral vessels,"person after first stroke, Plavix +/- calcium channel blocker, initial dose, transcranial Doppler at monthly intervals",no effect on the cerebral vessels
same,auto-regulation curve,[1],left-shifts toward normal
same,pulsatility index,[1],decreases
